{
  "source": "patent US20030220374A1",
  "about": "“Compositions and methods of treatment involving peroxisome proliferator-activated receptor-gamma agonists and cyclooxygenase-2 selective inhibitors” (Pharmacia Corporation, priority 2002, published 2003)",
  "origin": "cited, not measured here",
  "key": {"PPARγ": {"biological_target": "T1, PPARγ (Homo sapiens, UniProt P37231)", "T1 sequence (P37231 1-505)": "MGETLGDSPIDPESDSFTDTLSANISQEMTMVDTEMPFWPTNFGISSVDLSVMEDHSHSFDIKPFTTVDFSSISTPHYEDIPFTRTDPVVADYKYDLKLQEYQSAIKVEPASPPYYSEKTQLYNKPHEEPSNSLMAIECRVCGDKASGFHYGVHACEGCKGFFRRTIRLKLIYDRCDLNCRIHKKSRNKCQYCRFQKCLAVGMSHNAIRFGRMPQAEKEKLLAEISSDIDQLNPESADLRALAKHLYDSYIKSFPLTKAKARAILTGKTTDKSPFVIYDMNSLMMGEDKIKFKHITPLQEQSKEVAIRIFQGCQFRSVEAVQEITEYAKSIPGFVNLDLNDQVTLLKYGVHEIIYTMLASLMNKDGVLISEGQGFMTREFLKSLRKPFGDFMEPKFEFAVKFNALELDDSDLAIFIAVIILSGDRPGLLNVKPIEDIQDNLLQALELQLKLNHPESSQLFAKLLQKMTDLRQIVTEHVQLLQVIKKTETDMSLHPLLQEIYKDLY"}, "[1]": {"tested_on": "vascular smooth muscle cell"}, "human carotid arteries": {"tested_on": "human carotid arteries", "conditions": "in vivo"}, "[2]": {"tested_on": "hepatocellular cancer cells"}, "human lung cancer cells": {"tested_on": "human lung cancer cells", "conditions": "through the induction of apoptosis"}, "[3]": {"tested_on": "fibroblast growth factor-induced corneal angiogenesis", "conditions": "rats"}},
  "data": [
    {"compound": "COc1ccc2nc(COc3ccc(CC4SC(=O)NC4=O)cc3)n(C)c2c1", "note": "(stereo not shown) [CS-011, CI-1037]", "values": [
      {"measurement": "EC50", "setting": "PPARγ", "value": 160, "unit": "nM"}
    ]},
    {"compound": "Cc1c(C)c2c(c(C)c1O)CCC(C)(COc1ccc(CC3SC(=O)NC3=O)cc1)O2", "note": "(single isomer, unassigned; (+)) [Troglitazone, (+)-5-[[4-[(3,4-dihydro-6-hydroxy-2,5,7,8-tetramethyl-2H-1-benzopyran-2-yl)methoxy]phenyl]methyl]-2,4-thiazolidinedione]", "values": [
      {"measurement": "vascular smooth muscle cell growth", "setting": "[1]", "value": "inhibits"},
      {"measurement": "hyperplasia of human carotid arteries", "setting": "human carotid arteries", "value": "decreases"},
      {"measurement": "growth inhibition of hepatocellular cancer cells", "setting": "[2]", "value": "marked growth inhibition"},
      {"measurement": "growth of human lung cancer cells", "setting": "human lung cancer cells", "value": "inhibited the growth"}
    ]},
    {"compound": "Cc1ccc(-c2cc(C(F)(F)F)nn2-c2ccc(S(N)(=O)=O)cc2)cc1", "note": "[Celecoxib, 4-[5-(4-methylphenyl)-3-(trifluoromethyl)-1H-pyrazol-1-yl]benzenesulfonamide]", "values": [
      {"measurement": "inhibition of fibroblast growth factor-induced corneal angiogenesis", "setting": "[3]", "value": "potent inhibition"}
    ]},
    {"compound": "CCCCC/C=C\\C=C1\\C(=O)C=C[C@@H]1C/C=C\\CCCC(=O)O", "note": "[15-deoxy-Δ^12,14-prostaglandin J2, 11-oxo-prosta-5Z,9,12E,14Z-tetren-1-oic acid]", "values": [
      {"measurement": "growth inhibition of hepatocellular cancer cells", "setting": "[2]", "value": "marked growth inhibition"}
    ]}
  ]
}
